Assay results published in US8282688B2, “Laccase mediators and methods of use” (Danisco US Inc., priority 2006, dated 2012).
“And” between values parts separate entries of the source, which are not always exact repeats. Equal values may be shown once.

Columns and labels:
Type in all cases: biochemical
[1] = test system: Thielavia sp. laccase (Ecostone LCC10); test: Bleaching of solubilized indigo, Thielavia sp. laccase with mediators (Example 2); conditions: for ΔA600 (change in absorbance at 600 nm relative to control): laccase 10 ppm, pH 5, 50° C., 2 hours, n = 2
Method: An assay for the bleaching of the solubilized indigo substrate by laccase/mediator combinations was performed in a 96-well microtitre plate as follows
(§1) A saturated solution of indigo in N-methylpyrrolidone (NMP) was prepared by stirring indigo (30 mg) in NMP (10 ml) at room temperature for 5 hours. The NMP solution was diluted 10-fold into an aqueous buffer solution resulting in a blue solution. For example, dilution into 50 mM sodium acetate buffer at pH 5, or 50 mM sodium phosphate buffer at pH 7. Solutions were shaken well immediately before use.
(§2) The assay for the bleaching of the solubilized indigo substrate was performed in a 96-well microtitre plate whereby each well received the soluble indigo solution in 50 mM sodium acetate buffer at pH 5 (180 uL), laccase (10 ppm enzyme) and mediator solution (from a 20 mM stock solution in methanol). The total volume of each well was adjusted to 200 uL with deionzed water. A control containing laccase only was run in duplicate. The plate was sealed and incubated at 50° C. for 2 hours at 800 rpm on a heated agitator (Thermomixer, Eppendorf). Following this period, the plates were unsealed and a solution of ascorbic acid (20 uL of a 10% aqueous solution) added to each well in order to reduce the oxidized forms of the mediators. The extent of indigo bleaching was then assessed by determining the absorbance for each well at 600 nm using a microtitre plate reader. The lower the absorbance reading, the greater the extent of indigo bleaching.

[2] = test system: Thielavia laccase (Ecostone LCC10); test: Soluble indigo bleaching at two pH values, Thielavia laccase (Example 3)
Method: as §1, §2
(§3) Laccases derived from Myceliophtora (Denilite® II, Novozymes, Bagsvaerd, Denmark), Thielavia (Ecostone LCC10, AB enzymes, Darmstadt, Germany) and Cerrena sp. were assessed for their ability to bleach solubilized indigo in conjunction with low molecular weight mediators at two pH values.
(§4) Bleaching of solubilized indigo in 96-well microtitre plates was performed as described in Example 1, using 3 different laccases at pH values of 5 and 7.

Cerrena sp. laccase = test: Soluble indigo bleaching at two pH values, Cerrena sp. laccase (Example 3)
Method: as §1, §2, §3, §4

[3] = test system: Myceliophtora laccase (Denilite II); test: Soluble indigo bleaching at two pH values, Myceliophtora laccase (Example 3)
Method: as §1, §2, §3, §4

C. unicolor laccase = test: Bleaching of denim swatches with C. unicolor laccase (Example 4); parameters: key to ΔL Denim swatch Frontside / Δb Denim swatch Frontside / ΔL Denim swatch Backside / Δb Denim swatch Backside / Δa Denim swatch Backside / Δa Denim swatch Frontside: difference between initial and final CIE L*a*b* values; key to ΔE (total color difference) Denim swatch Backside / ΔE (total color difference) Denim swatch Frontside: ΔE = (ΔL²+Δa²+Δb²)^1/2 from CIE L*a*b* before/after bleaching
Method: Denim legs (made out of sulfur bottom/indigo dyed denim fabric from Cone Mill, style number 1662P) were pretreated with IndiAge® 2XL at a dose of 1 gram per liter in a 50 lb lab scale tumbling washer. The liquor ratio was 6 to 1 (5 kg substrate in 30 liters of water) and the treatment was performed at 55° C. at pH 4.5 for 1 hour. A warm rinse followed the cellulase treatment, after which the fabric was dried in a tumble dryer. A punch press was used to cut ⅝ inch denim disks from IndiAge® 2XL pretreated denim legs. Each denim disk is pre read with a Chroma Meter CR-200 by Minolta in order to determine the CIE L*a*b* values of both the front and backside of the fabric disk.
One denim disk is placed in each well of two duplicate 12 well micro-titer plates. Each well received C. unicolor laccase (20 uL of 1/20 dilution, approx. 20 ppm), mediator (200, 100, 50 or 20 uL of a 20 mM stock solution in methanol) and 50 mM potassium phosphate buffer, pH 6 for a total volume of 2 mL/well. The mediators were methyl syringate (MS), 4-cyano-2,6-dimethoxyphenol (SN) and 3,4,5-trimethoxyphenol (TMP). The plates were sealed and incubated at 50° C. for 2 hours at 150 rpm in a standard incubator. Following this period, the swatches were removed from the plates and carefully placed on a filter paper in a Buchner funnel and washed with copious amounts of water, followed by drying of the residual water under high vacuum overnight. The swatches were then re-read with the chromometer in order to determine the CIE L*a*b* values of both the front and backside of the disk following bleaching. The total color difference (ΔE) is calculated from the difference between the initial and final CIE L*a*b* values according to the formula ΔE=(ΔL^2+Δa^2+Δb^2)^1/2 The total color differences (ΔE) as a function of mediator concentration are plotted in FIGS. 5 and 6.

[4] = mediator 50 mM Concentration (head)
[5] = mediator 500 mM Concentration (head)
[6] = mediator 200 uM, laccase 20 ppm, pH 6, 50° C., 2 hours
[7] = mediator 500 uM, laccase 20 ppm, pH 6, 50° C., 2 hours
[8] = mediator 1000 uM, laccase 20 ppm, pH 6, 50° C., 2 hours
[9] = lower mediator concentration of 50 uM

ΔA600 (change in absorbance at 600 nm relative to control) [1, 4] | ΔA600 (change in absorbance at 600 nm relative to control) [1, 5] | ΔA600 Thielavia ([2]; pH 5, mediator 250 uM) | ΔA600 Thielavia ([2]; pH 7, mediator 250 uM) | ΔA600 Cerrena (Cerrena sp. laccase; pH 5, mediator 250 uM) | ΔA600 Cerrena (Cerrena sp. laccase; pH 7, mediator 250 uM) | ΔA600 Myceliophtora ([3]; pH 5, mediator 250 uM) | ΔA600 Myceliophtora ([3]; pH 7, mediator 250 uM) | SMILES | other results
0.132 | 0.044 |  |  |  |  |  |  | O=C(O)CCCN1c2ccccc2Sc2ccccc21 [PTP, 10-(carboxypropyl)-phenothiazine] | 
 |  | 0.068 | 0.112 | 0.240 | 0.257 | 0.157 | 0.204 | COc1cc(C=CC(=O)O)cc(OC)c1O (stereo in doubt) [Sinapinic acid, sinapinic acid] | 
 |  |  |  |  |  |  |  | COc1cc(O)cc(OC)c1OC [TMP, 3,4,5-trimethoxyphenol, reference compound] | effectiveness as mediator for denim swatch bleaching (C. unicolor laccase; C. unicolor laccase 20 ppm, 200-2000 uM mediator): not an effective mediator; ΔE (total color difference) Denim swatch Backside (C. unicolor laccase; [6]): 0.35 and 0.57; ΔE (total color difference) Denim swatch Frontside (C. unicolor laccase; [6]): 0.96 and 0.77; Δa Denim swatch Frontside (C. unicolor laccase; [6]): 0.29 and 0.33; ΔE (total color difference) Denim swatch Backside (C. unicolor laccase; [7]): 0.51 and 0.30; ΔE (total color difference) Denim swatch Frontside (C. unicolor laccase; [7]): 0.64 and 0.63; ΔL Denim swatch Frontside (C. unicolor laccase; [7]): −0.61; ΔE (total color difference) Denim swatch Backside (C. unicolor laccase; [8]): 0.45 and 0.51; ΔE (total color difference) Denim swatch Frontside (C. unicolor laccase; [8]): 0.51 and 0.46; Δa Denim swatch Backside (C. unicolor laccase; [8]): 0.22 and 0.12; ΔE (total color difference) Denim swatch Backside (C. unicolor laccase; mediator 2000 uM, laccase 20 ppm, pH 6, 50° C., 2 hours): 0.34
0.005 | 0.024 |  |  |  |  |  |  | COc1cc(C(=O)O)cc(OC)c1O [Syringic acid, syringic acid] | effectiveness as mediator for indigo bleaching [1, 9]: no more effectively than the control condition
 |  | 0.100 | 0.087 | 0.028 | 0.077 | 0.117 | 0.078 | COC(=O)c1cc(OC)c(OC(C)=O)c(OC)c1 [AMS, methyl 4-acetyl syringate] | 
0.103 | 0.181 |  |  |  |  |  |  | CNC(=O)c1cc(OC)c(O)c(OC)c1 [MSA, 4-(N-methylcarboxamido)-2,6-dimethoxyphenol] | 

SMILES | ΔA600 (change in absorbance at 600 nm relative to control) [1, 4] | ΔA600 (change in absorbance at 600 nm relative to control) [1, 5] | ΔA600 Thielavia ([2]; pH 5, mediator 250 uM) | ΔA600 Thielavia ([2]; pH 7, mediator 250 uM) | ΔA600 Cerrena (Cerrena sp. laccase; pH 5, mediator 250 uM) | ΔA600 Cerrena (Cerrena sp. laccase; pH 7, mediator 250 uM) | ΔA600 Myceliophtora ([3]; pH 5, mediator 250 uM) | ΔA600 Myceliophtora ([3]; pH 7, mediator 250 uM) | other results
CCn1c(=NN=c2sc3cc(S(=O)(=O)O)ccc3n2CC)sc2cc(S(=O)(=O)O)ccc21 [ABTS] | 0.174 | 0.235 | 0.234 | 0.145 | 0.329 | 0.215 | 0.267 | 0.155 | effectiveness as mediator for indigo bleaching [1, 9]: most effective mediator; effectiveness as mediator for indigo bleaching ([1]; mediator concentration of 500 uM): most effective mediator
COc1cc(C=O)cc(OC)c1O [Syringaldehyde, syringaldehyde] | 0.092 | 0.132 |  |  |  |  |  |  | 
